Results: EP0454060B1, “3-(Mercaptoalkyl)-quinazoline-2,4(1H,3H)-diones, processes for their preparation, and pharmaceutical compositions” (priority 1990, dated 1991)
Like-named read-outs stand apart in the source and are kept apart here.

Tests used:
Vaccinia Lister [1] = format: cell-based, Vaccinia-Virus; details: Beispielreihe 5b, Hühnerembryonalfibroblasten, Vaccinia Lister
Influenza A/WSN [2] = assay: One-step replication cycle on chick embryo cells; format: cell-based, Influenza-Virus; details: Beispielreihe 5b, Hühnerembryonalfibroblasten, Influenza A/WSN
Vaccinia Lister [3] = assay: One-step replication cycle on permanent human kidney cell line
[4] = test system: Herpes simplex Typ 1 Kupka; assay: as above; details: Beispielreihe 5a
Influenza A/WSN [5] = assay: as above
[6] = Herpes simplex Typ 1, 125 µmol/l
[7] = Herpes simplex Typ 1, 250 µmol/l

With COc1cc2[nH]c(=O)n(CCCS)c(=O)c2cc1OC [Beispiel 2, 3-(3-Mercaptoprop-1-yl)-6,7-dimethoxychinazolin-2,4(1H,3H)-dion] the “% Hemmung” value (Vaccinia Lister [1]; 125 µmol/l) was > 99,99%, the “Senkung des Virusertrages im Vergleich zur unbehandelten Kontrolle” value (Vaccinia Lister [1]; 125 µmol/l) was 5,0 log10 TCID50/02 ml and the “% Hemmung” value (Vaccinia Lister [1]; 250 µmol/l) was > 99,99%. The “Senkung des Virusertrages im Vergleich zur unbehandelten Kontrolle” value (Vaccinia Lister [1]; 250 µmol/l) was 5,0 log10 TCID50/02 ml, the “Senkung des Virusertrages im Vergleich zur unbehandelten Kontrolle” value (Vaccinia Lister [1]; 31,25 µmol/l) was 3,0 log10 TCID50/02 ml and the “% Hemmung” value (Vaccinia Lister [1]; 31,25 µmol/l, 31.25 µM) was 99,9%. The “Senkung des Virusertrages im Vergleich zur unbehandelten Kontrolle” value (Vaccinia Lister [1]; 62,5 µmol/l) was 3,5 log10 TCID50/02 ml, the “% Hemmung” value (Vaccinia Lister [1]; 62,5 µmol/l, 62.5 µM) was 99,93% and the “% Hemmung” value (Influenza A/WSN [2]; 125 µmol/l) was > 99,99%. For the same compound, the “Senkung des Virusertrages im Vergleich zur unbehandelten Kontrolle” value (Influenza A/WSN [2]; 125 µmol/l) was 5,0 log10 TCID50/02 ml, the “% Hemmung” value (Influenza A/WSN [2]; 250 µmol/l) was > 99,99% and the “Senkung des Virusertrages im Vergleich zur unbehandelten Kontrolle” value (Influenza A/WSN [2]; 250 µmol/l) was 5,0 log10 TCID50/02 ml. For the same compound, the “Senkung des Virusertrages im Vergleich zur unbehandelten Kontrolle” value (Influenza A/WSN [2]; 62,5 µmol/l) was 2,0 log10 TCID50/02 ml, the “% Hemmung” value (Influenza A/WSN [2]; 62,5 µmol/l, 62.5 µM) was 99,0% and the “% Hemmung” value (Vaccinia Lister [3]; Beispielreihe 5a, 125 µmol/l) was > 99,99%. The “Senkung des Virusertrages im Vergleich zur unbehandelten Kontrolle” value (Vaccinia Lister [3]; Beispielreihe 5a, 125 µmol/l) was 5,0 log10 TCID50/0,2 ml, the “% Hemmung” value (Vaccinia Lister [3]; Beispielreihe 5a, 250 µmol/l) was > 99,99% and the “Senkung des Virusertrages im Vergleich zur unbehandelten Kontrolle” value (Vaccinia Lister [3]; Beispielreihe 5a, 250 µmol/l) was 5,0 log10 TCID50/0,2 ml. For the same compound, the “Senkung des Virusertrages im Vergleich zur unbehandelten Kontrolle” value (Vaccinia Lister [3]; Beispielreihe 5a, 31,25 µmol/l) was 2,84 log10 TCID50/0,2 ml, the “% Hemmung” value (Vaccinia Lister [3]; Beispielreihe 5a, 31,25 µmol/l, 31.25 µM) was 99,84% and the “Senkung des Virusertrages im Vergleich zur unbehandelten Kontrolle” value (Vaccinia Lister [3]; Beispielreihe 5a, 62,5 µmol/l) was 5,0 log10 TCID50/0,2 ml. The “% Hemmung” value (Vaccinia Lister [3]; Beispielreihe 5a, 62,5 µmol/l, 62.5 µM) was > 99,99%, the “% Hemmung” value [4, 6] was > 99,99% and the “Senkung des Virusertrages im Vergleich zur unbehandelten Kontrolle” value [4, 6] was 6,5 log10 TCID50/0,2 ml. The “% Hemmung” value [4, 7] was > 99,99%, the “Senkung des Virusertrages im Vergleich zur unbehandelten Kontrolle” value [4, 7] was 6,5 log10 TCID50/0,2 ml and the “Senkung des Virusertrages im Vergleich zur unbehandelten Kontrolle” value ([4]; Herpes simplex Typ 1, 31,25 µmol/l) was 3,67 log10 TCID50/0,2 ml. The “% Hemmung” value ([4]; Herpes simplex Typ 1, 31,25 µmol/l, 31.25 µM) was 99,97%, the “Senkung des Virusertrages im Vergleich zur unbehandelten Kontrolle” value ([4]; Herpes simplex Typ 1, 62,5 µmol/l) was 5,0 log10 TCID50/0,2 ml and the “% Hemmung” value ([4]; Herpes simplex Typ 1, 62,5 µmol/l, 62.5 µM) was > 99,99%. For the same compound, the “% Hemmung” value (Influenza A/WSN [5]; Beispielreihe 5a, 125 µmol/l) was 99,0%, the “Senkung des Virusertrages im Vergleich zur unbehandelten Kontrolle” value (Influenza A/WSN [5]; Beispielreihe 5a, 125 µmol/l) was 2,0 log10 TCID50/0,2 ml and the “% Hemmung” value (Influenza A/WSN [5]; Beispielreihe 5a, 250 µmol/l) was 99,99%. For the same compound, the “Senkung des Virusertrages im Vergleich zur unbehandelten Kontrolle” value (Influenza A/WSN [5]; Beispielreihe 5a, 250 µmol/l) was 6,17 log10 TCID50/0,2 ml, the “Senkung des Virusertrages im Vergleich zur unbehandelten Kontrolle” value (Influenza A/WSN [5]; Beispielreihe 5a, 31,25 µmol/l) was 0 log10 TCID50/0,2 ml and the “Senkung des Virusertrages im Vergleich zur unbehandelten Kontrolle” value (Influenza A/WSN [5]; Beispielreihe 5a, 62,5 µmol/l) was 0,5 log10 TCID50/0,2 ml. The “% Hemmung” value (Influenza A/WSN [5]; Beispielreihe 5a, 62,5 µmol/l, n. s. = nicht signifikant) was “n. s”.
